This note sets out measurements from PMC4977651, “Molecular features of biguanides required for targeting of mitochondrial respiratory complex I and activation of AMP-kinase” (BMC Biology, 2016).

Assay [1] deals with isolated bovine heart complex I (Bos taurus, UniProt P03887+P03898+P17694+P42026). The assay can be described thus: NADH:decylubiquinone oxidoreduction by isolated complex I. In kind it is biochemical. The settings on record: bovine heart purified mitochondrial complex I, read-out: average % (rate, % of no-inhibitor control). As for the experimental part:
(§1) Complex I and mitochondrial membranes were prepared from Bos taurus (bovine) heart. Intact mitochondria were isolated from rat liver and mouse heart and liver. Membranes were prepared from mouse heart mitochondria by 5 s bursts of sonication at 4 °C and collected by centrifugation (75,000 × g, 1 h).
(§2) Assays were performed at 32 °C in a SpectraMax 96-well plate reader. NADH:decylubiquinone oxidoreduction by complex I at 0.5 μg mL^−1 was measured in 20 mM Tris-HCl (pH 7.2), 0.15 % soy bean asolectin (Avanti Polar Lipids), and 0.15 % 3-((3-cholamidopropyl)dimethylammonium)-1-propanesulfonate (CHAPS, Merck Chemicals Ltd), with 200 μM decylubiquinone and 200 μM NADH, and monitored using ε340–380(NADH) = 4.81 mM^−1 cm^−1 [23]. Catalysis was initiated by addition of NADH and maximal rates determined by linear regression. NADH:O2 oxidoreduction by membranes was measured similarly but using 5 μg mL^−1 membranes in 10 mM Tris-HCl (pH 7.4) and 250 mM sucrose using 200 μM NADH and supplemented with 0.15 mM horse heart cytochrome c (Sigma-Aldrich Ltd.). Succinate:O2 oxidoreduction was measured using 40 μg mL^−1 membranes in 5 mM succinate in 10 mM Tris-HCl (pH 7.4) as described previously. Control experiments included NaCl (to match the ionic strength) or DMSO, as appropriate.
(§3) Experimental values are reported as mean averages ± standard deviation (SD) of technical replicates for large sample sizes and mean averages ± standard error of the mean (SEM) of technical replicates for small sample sizes. Data were analyzed by the unpaired two-tailed Student’s t test. IC50 values were determined using the standard dose-effect relationship (activity (%) = 100 × IC50 / (IC50 + [inhibitor]^m) with the Hill Slope (m) set to unity for purified complex I) and are reported with 95 % confidence intervals.

For assay [2], the target named is bovine heart mitochondrial membranes (complex I) (Bos taurus, UniProt P03887+P03898+P17694+P42026). The assay can be described thus: NADH:O2 oxidoreduction by bovine heart mitochondrial membranes (complexes I-III-IV). In kind it is biochemical. The settings on record: bovine heart mitochondrial membranes, read-out: average % (rate, % of no-inhibitor control). As for the experimental part: as §1, §2, §3
bovine heart mitochondrial membranes (complex I), sequence (P42026 38-216): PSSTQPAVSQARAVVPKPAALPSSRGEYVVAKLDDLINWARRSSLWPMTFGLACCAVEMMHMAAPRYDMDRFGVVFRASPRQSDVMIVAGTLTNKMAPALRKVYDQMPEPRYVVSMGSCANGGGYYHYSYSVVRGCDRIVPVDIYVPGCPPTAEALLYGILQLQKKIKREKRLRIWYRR
bovine heart mitochondrial membranes (complex I), sequence (P17694 34-463): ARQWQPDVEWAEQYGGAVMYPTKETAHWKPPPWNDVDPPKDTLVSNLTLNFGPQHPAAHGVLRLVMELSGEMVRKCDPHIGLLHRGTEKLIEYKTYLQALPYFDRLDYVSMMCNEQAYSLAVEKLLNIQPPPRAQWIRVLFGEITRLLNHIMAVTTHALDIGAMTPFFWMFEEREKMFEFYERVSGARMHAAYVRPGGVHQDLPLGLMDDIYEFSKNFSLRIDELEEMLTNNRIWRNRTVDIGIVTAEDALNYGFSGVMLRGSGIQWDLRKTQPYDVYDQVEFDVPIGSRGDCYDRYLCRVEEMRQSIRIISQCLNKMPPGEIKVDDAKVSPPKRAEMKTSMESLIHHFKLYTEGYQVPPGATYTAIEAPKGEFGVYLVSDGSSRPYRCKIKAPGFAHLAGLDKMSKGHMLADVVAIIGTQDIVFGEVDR
bovine heart mitochondrial membranes (complex I), sequence (P03887 whole entry): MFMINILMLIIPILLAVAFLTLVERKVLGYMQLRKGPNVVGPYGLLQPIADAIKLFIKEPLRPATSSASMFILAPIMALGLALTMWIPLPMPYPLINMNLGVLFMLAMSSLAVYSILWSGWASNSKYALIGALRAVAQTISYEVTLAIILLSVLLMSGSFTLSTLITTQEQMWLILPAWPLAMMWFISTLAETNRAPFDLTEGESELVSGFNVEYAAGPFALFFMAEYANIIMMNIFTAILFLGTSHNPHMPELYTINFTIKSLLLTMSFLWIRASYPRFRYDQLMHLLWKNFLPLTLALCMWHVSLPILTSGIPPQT
bovine heart mitochondrial membranes (complex I), sequence (P03898 whole entry): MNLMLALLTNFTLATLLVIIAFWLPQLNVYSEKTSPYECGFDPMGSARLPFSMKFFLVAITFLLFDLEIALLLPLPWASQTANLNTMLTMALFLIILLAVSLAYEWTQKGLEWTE

The target of assay [3] is mouse heart mitochondrial membranes (complex I) (Mus musculus, UniProt P03888+P03899+Q91WD5+Q9DC70). In words: NADH:O2 oxidoreduction by mouse heart mitochondrial membranes. In kind it is biochemical. The settings on record: read-out: average % (rate, % of no-inhibitor control). On the procedure: as §1, §2, §3
mouse heart mitochondrial membranes (complex I), sequence (P03899 whole entry): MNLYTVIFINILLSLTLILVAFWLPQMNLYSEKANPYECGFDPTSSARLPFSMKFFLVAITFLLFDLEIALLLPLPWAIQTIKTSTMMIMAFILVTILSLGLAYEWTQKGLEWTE
mouse heart mitochondrial membranes (complex I), sequence (P03888 whole entry): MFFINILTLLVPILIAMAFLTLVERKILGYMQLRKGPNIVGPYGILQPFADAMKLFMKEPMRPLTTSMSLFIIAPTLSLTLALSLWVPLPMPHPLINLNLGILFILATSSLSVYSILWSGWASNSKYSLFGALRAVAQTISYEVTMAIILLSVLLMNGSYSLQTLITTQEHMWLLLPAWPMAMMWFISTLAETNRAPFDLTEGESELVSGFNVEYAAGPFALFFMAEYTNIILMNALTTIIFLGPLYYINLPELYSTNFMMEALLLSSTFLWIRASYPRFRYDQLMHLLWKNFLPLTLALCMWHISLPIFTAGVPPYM
mouse heart mitochondrial membranes (complex I), sequence (Q9DC70 36-224): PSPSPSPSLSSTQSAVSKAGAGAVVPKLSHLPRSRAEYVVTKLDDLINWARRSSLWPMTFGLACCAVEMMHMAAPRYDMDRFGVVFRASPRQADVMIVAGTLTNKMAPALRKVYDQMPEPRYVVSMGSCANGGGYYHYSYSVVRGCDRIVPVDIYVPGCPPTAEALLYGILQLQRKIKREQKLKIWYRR
mouse heart mitochondrial membranes (complex I), sequence (Q91WD5 34-463): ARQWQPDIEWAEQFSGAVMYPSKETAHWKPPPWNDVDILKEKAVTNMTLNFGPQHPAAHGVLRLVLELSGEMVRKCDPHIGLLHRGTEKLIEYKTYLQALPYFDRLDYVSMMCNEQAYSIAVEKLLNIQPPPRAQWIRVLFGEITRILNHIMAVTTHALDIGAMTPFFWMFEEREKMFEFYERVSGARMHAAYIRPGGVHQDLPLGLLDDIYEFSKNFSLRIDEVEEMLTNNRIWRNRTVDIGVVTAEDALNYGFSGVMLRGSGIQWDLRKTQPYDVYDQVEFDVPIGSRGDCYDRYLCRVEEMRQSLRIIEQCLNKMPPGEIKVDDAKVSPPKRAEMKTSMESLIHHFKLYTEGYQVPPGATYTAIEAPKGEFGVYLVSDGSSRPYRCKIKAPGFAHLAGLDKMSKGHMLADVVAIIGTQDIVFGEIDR
Another assay relates to 143B cells. The assay can be described thus: Membrane potential measurement by TMRM fluorescence. Format: cell-based, human. As for the experimental part: 143B cells were seeded at 5 × 10^5 cells per 10 cm^2 well in DMEM containing 10 % FBS. […] The detached cells from each well were incubated in PBS containing 25 pg/mL tetramethylrhodamine, methyl ester (TMRM) and 20 μg/mL Hoescht stain for 20 min at 37 °C then washed twice and re-suspended in 200 μL PBS. TMRM fluorescence was detected using a NucleoCounter® NC 3000 cytometer with excitation at 530 nm and emission at 575 nm, with the Hoescht stain used to check for consistent cell density between samples.

“And” between values parts separate entries of the source, which are not always exact repeats. Equal entries are not always repeated.

isolated bovine heart complex I, sequence (P42026 38-216): as the sequence (P42026 38-216) above
isolated bovine heart complex I, sequence (P17694 34-463): as the sequence (P17694 34-463) above
isolated bovine heart complex I, sequence (P03898 whole entry): as the sequence (P03898 whole entry) above
isolated bovine heart complex I, sequence (P03887 whole entry): as the sequence (P03887 whole entry) above

Take `N=C(N)N=C(N)Nc1ccccc1` [compound2]: the remaining activity at 50 µM in assay [1] (inhibitor 0.05 mM) was determined as 89%; in assay [2] (inhibitor 0.05 mM) it was 80.9%; in assay [3] (inhibitor 0.05 mM), 91.6%. Also, the remaining activity at 100 µM in assay [1] (inhibitor 0.10 mM) turned out to be 82.1%. For the same molecule, in assay [1] (inhibitor 0.20 mM), the remaining activity at 200 µM was 70%. Besides, the remaining activity at 400 µM in assay [1] (inhibitor 0.40 mM) was found to be 50.6%. Besides, the remaining activity at 1000 µM in assay [1] (inhibitor 1.00 mM) came to 33.6%. For the same molecule, the remaining activity at 2000 µM in assay [1] (inhibitor 2.00 mM) was determined as 17.4%. For the same molecule, the remaining activity at 2500 µM in assay [1] (inhibitor 2.50 mM) is 15.2%; in assay [2] (inhibitor 2.50 mM), 21.2%; in assay [3] (inhibitor 2.50 mM), 27%. The remaining activity at 25 µM stood at 91.2% in assay [2] (inhibitor 0.025 mM) and 100% in assay [3] (inhibitor 0.025 mM). In addition, the remaining activity at 120 µM in assay [2] (inhibitor 0.12 mM) turned out to be 74.7%. Further, the remaining activity at 250 µM was found to be 59.3% in assay [2] (inhibitor 0.25 mM) and 81.9% in assay [3] (inhibitor 0.25 mM). In addition, the remaining activity at 500 µM came out at 43.6% in assay [2] (inhibitor 0.50 mM) and 59.6% in assay [3] (inhibitor 0.50 mM). The figures for the remaining activity at 1250 µM in assay [2] (inhibitor 1.25 mM) and in assay [3] (inhibitor 1.25 mM) were 32% and 40.4%, respectively. For the same molecule, the remaining activity at 130 µM in assay [3] (inhibitor 0.13 mM) stood at 95.5%.

For `N#CC(C#N)=NNc1ccc(OC(F)(F)F)cc1` [FCCP, carbonyl cyanide-4-(trifluoromethoxy)phenylhydrazone], in the assay on 143B cells (after 6.5 h, phenformin at IC50/10 (34 μM), FCCP at 1 μM, n = 3), the “TMRM fluorescence, % of the control value” was 13.43 ± 1.7%. The “mean-y (TMRM)” value in the assay with 143B cells (individual replicates, phenformin 6.5 hours) was 1862.7 and 2673.4 and 1873.5. For the same molecule, in the assay with 143B cells (n 3, phenformin 6.5 hours), the TMRM average is given as 2136.53 and the “TMRM average, % control” value was 13.43 % control.
